Source: ChEMBL document CHEMBL5143744, “Discovery of Tenapanor: A First-in-Class Minimally Systemic Inhibitor of Intestinal Na+/H+ Exchanger Isoform 3” (ACS Med Chem Lett, 2022)
Activity calls are given as the source filed them. The rule behind the calls is not given here.

Tests used:
[1] = In vivo inhibition of NEH3 in Sprague-Dawley rat assessed as fecal water content at 3 mg/kg, po administered via gavage measured after 6 hrs; type: functional; set-up: scale not given: the % may be the effect or the level left
[2] = In vivo inhibition of NEH3 in Sprague-Dawley rat assessed as sodium excretion in urine at 3 mg/kg, po administered via gavage measured after 16 hrs by ion chromatography relative to control; set-up: scale not given: the % may be the effect or the level left
[3] = Dose normalized AUC in Sprague-Dawley rat at 5.3 mg/kg, po administered via gavage by LC-MS/MS analysis; type: ADME, organism-based; settings: in vivo
Rattus norvegicus = assay: In vivo inhibition of NEH3 in Sprague-Dawley rat assessed as reduction in sodium excretion in urine at 0.1 to 3 mg/kg, po administered via gavage measured after 16 hrs by ion chromatography; type: functional, organism-based; settings: dose 0.1-3 mg/kg
[4] = Drug metabolism in Sprague-Dawley rat at 30 mg/kg, po administered via gavage by LC-MS/MS analysis; type: ADME, organism-based; settings: in vivo
[5] = In vivo inhibition of NEH3 in Sprague-Dawley rat assessed as increase in fecal water content at 0.1 to 3 mg/kg, po administered via gavage measured after 6 hrs; type: functional; set-up: scale not given: the % may be the effect or the level left; settings: dose 0.1-3 mg/kg
[6] = Drug recovery in Sprague-Dawley rat feces at 0.3 mg/kg, po administered via gavage measured after 64 hrs by LC-MS/MS analysis; type: ADME, organism-based; settings: faeces, read-out: Drug recovery
[7] = Cmax in Sprague-Dawley rat at 30 mg/kg, po administered via gavage by LC-MS/MS analysis; type: ADME, organism-based; set-up: dose 30 mg/kg, route po; settings: in vivo
[8] = Drug metabolism in Sprague-Dawley rat feces at 0.3 mg/kg, po administered via gavage measured after 64 hrs by LC-MS/MS analysis; type: ADME, organism-based; settings: in vivo
hERG (KCNH2) = hERG (KCNH2) (Homo sapiens, UniProt Q12809); assay: Inhibition of human ERG at 10 uM relative to control; type: toxicity
Sequence of hERG (KCNH2) (Q12809 whole entry): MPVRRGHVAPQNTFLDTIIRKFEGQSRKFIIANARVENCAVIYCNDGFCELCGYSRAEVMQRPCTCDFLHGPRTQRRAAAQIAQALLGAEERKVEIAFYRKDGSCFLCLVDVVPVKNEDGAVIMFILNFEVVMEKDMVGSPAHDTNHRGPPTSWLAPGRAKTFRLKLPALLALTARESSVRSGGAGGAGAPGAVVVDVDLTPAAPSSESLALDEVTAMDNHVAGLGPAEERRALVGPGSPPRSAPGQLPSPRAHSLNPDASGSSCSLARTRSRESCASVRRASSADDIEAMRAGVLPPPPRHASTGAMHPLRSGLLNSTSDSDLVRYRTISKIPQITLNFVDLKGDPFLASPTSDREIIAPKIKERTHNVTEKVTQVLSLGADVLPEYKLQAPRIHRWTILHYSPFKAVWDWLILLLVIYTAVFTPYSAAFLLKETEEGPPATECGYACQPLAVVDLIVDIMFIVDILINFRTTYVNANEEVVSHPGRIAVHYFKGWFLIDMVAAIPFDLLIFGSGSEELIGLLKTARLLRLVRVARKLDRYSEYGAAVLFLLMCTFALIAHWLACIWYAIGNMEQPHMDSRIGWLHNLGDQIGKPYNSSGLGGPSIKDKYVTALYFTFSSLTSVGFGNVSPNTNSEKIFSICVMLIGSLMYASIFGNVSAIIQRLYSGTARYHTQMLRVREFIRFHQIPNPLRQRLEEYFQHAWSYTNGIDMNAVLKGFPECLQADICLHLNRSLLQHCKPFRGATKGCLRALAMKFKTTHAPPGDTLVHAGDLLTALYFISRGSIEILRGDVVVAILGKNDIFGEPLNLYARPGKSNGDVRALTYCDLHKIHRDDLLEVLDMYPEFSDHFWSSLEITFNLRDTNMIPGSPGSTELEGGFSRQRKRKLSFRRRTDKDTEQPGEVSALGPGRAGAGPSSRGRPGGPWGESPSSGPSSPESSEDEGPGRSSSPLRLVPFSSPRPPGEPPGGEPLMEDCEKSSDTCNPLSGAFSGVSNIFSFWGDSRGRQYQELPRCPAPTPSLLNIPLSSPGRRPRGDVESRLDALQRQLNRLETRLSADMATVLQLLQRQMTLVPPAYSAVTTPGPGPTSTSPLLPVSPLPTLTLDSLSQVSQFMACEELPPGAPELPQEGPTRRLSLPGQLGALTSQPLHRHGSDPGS

[9] = AUC in Sprague-Dawley rat at 22 mg/kg, po administered via gavage by LC-MS/MS analysis; settings: in vivo
[10] = In vivo inhibition of NEH3 in Sprague-Dawley rat assessed as fecal form score at 3 mg/kg, po administered via gavage measured after 6 hrs; type: functional
[11] = target: Sodium/hydrogen exchanger 3 (Rattus norvegicus, UniProt P26433); assay: Inhibition of rat NHE3 expressed in opossum kidney cells assessed as reduction in Na-HEPES buffer-mediated pH recovery in presence of NEH1 inhibitor ethyl isopropyl amiloride by BCECF-AM dye based fluorescence assay; type: cell-based, Kidney epithelial cell
Sequence of Sodium/hydrogen exchanger 3 (Rattus norvegicus, UniProt P26433) (P26433 whole entry): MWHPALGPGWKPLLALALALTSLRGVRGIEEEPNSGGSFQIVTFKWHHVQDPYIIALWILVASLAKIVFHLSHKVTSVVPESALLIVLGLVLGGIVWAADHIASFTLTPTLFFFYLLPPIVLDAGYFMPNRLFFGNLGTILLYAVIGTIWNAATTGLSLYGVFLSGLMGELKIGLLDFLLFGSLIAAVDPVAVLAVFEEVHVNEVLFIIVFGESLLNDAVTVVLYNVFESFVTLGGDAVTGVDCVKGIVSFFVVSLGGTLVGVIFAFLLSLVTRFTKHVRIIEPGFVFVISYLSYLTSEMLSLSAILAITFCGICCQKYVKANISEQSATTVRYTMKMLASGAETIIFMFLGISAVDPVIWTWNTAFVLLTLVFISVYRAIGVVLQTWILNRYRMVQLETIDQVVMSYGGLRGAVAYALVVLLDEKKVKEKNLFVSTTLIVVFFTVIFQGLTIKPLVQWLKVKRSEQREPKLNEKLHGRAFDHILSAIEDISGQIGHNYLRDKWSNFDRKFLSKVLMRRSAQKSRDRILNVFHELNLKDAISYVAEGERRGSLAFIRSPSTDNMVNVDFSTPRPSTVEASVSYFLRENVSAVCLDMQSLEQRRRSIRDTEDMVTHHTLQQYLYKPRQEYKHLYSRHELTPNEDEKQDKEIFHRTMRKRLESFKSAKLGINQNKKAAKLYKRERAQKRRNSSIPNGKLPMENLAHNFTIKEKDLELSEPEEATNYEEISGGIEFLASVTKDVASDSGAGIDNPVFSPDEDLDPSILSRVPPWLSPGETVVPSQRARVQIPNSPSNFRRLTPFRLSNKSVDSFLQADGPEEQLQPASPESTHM

[12] = Cmax in Sprague-Dawley rat at 22 mg/kg, po administered via gavage by LC-MS/MS analysis; type: ADME, organism-based; set-up: dose 22 mg/kg, route po; settings: in vivo
[13] = target: T1, Sodium/hydrogen exchanger 3 (Homo sapiens, UniProt P48764); assay: Inhibition of human NHE3 expressed in opossum kidney cells assessed as reduction in Na-HEPES buffer-mediated pH recovery in presence of NEH1 inhibitor ethyl isopropyl amiloride by BCECF-AM dye based fluorescence assay; type: cell-based, Kidney epithelial cell
T1 sequence (P48764 whole entry): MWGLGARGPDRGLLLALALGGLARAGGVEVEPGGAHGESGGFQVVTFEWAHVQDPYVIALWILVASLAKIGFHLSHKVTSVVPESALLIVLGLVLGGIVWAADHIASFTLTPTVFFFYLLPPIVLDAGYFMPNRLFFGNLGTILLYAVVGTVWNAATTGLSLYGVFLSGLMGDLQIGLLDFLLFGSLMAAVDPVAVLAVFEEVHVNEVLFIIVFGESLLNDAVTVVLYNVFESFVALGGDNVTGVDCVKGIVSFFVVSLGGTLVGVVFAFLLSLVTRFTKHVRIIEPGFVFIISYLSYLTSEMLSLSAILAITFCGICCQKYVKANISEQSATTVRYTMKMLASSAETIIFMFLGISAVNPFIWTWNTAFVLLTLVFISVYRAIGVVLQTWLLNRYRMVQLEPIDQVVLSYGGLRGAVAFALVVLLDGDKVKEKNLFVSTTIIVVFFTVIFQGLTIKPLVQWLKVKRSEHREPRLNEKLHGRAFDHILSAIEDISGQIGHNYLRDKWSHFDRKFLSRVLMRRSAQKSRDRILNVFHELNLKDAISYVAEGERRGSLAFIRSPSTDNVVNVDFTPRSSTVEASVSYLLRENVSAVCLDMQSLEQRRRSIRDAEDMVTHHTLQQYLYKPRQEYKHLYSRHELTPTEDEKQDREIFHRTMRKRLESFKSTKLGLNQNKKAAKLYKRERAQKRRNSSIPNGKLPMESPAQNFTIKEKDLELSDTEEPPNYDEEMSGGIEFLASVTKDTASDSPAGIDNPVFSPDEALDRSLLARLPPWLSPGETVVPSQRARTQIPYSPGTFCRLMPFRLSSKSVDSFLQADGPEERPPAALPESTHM

[14] = AUC in Sprague-Dawley rat at 1.8 mg/kg, po administered via gavage by LC-MS/MS analysis; settings: in vivo
[15] = Cmax in Sprague-Dawley rat at 1.8 mg/kg, po administered via gavage by LC-MS/MS analysis; type: ADME, organism-based; set-up: dose 1.8 mg/kg, route po; settings: in vivo
[16] = Cmax in Sprague-Dawley rat at 19 mg/kg, po administered via gavage by LC-MS/MS analysis; type: ADME, organism-based; set-up: dose 19 mg/kg, route po; settings: in vivo
[17] = AUC in Sprague-Dawley rat at 19 mg/kg, po administered via gavage by LC-MS/MS analysis; settings: in vivo
[18] = Cmax in Sprague-Dawley rat at 23 mg/kg, po administered via gavage by LC-MS/MS analysis; type: ADME, organism-based; set-up: dose 23 mg/kg, route po; settings: in vivo
[19] = AUC in Sprague-Dawley rat at 23 mg/kg, po administered via gavage by LC-MS/MS analysis; settings: in vivo
[20] = Cmax in Sprague-Dawley rat at 17 mg/kg, po administered via gavage by LC-MS/MS analysis; type: ADME, organism-based; set-up: dose 17 mg/kg, route po; settings: in vivo
[21] = AUC in Sprague-Dawley rat at 17 mg/kg, po administered via gavage by LC-MS/MS analysis; settings: in vivo
[22] = Cmax in Sprague-Dawley rat at 28 mg/kg, po administered via gavage by LC-MS/MS analysis; type: ADME, organism-based; set-up: dose 28 mg/kg, route po; settings: in vivo
[23] = AUC in Sprague-Dawley rat at 28 mg/kg, po administered via gavage by LC-MS/MS analysis; settings: in vivo
[24] = Dose normalized AUC in Sprague-Dawley rat at […], po administered via gavage by LC-MS/MS analysis; type: ADME, organism-based; settings: in vivo, dose 7.2 mg/kg
[25] = Cmax in Sprague-Dawley rat at […], po administered via gavage by LC-MS/MS analysis; type: ADME, organism-based; set-up: dose 7.2 mg/kg, route po; settings: in vivo
[26] = Drug metabolism in Sprague-Dawley rat feces at 0.1 mg/kg, po administered via gavage measured after 72 hrs by LC-MS/MS analysis; type: ADME, organism-based; settings: in vivo
[27] = Toxicity in Sprague-Dawley rat assessed as change in aspartate aminotransferase level at 30 mg/kg, po administered for 7 days measured on day 8; type: organism-based; settings: in vivo, 192 h, time 8 day
[28] = Toxicity in Sprague-Dawley rat assessed as pathological changes at 30 mg/kg, po administered for 7 days measured on day 8 by microscopy; type: organism-based; settings: in vivo, 192 h, time 8 day
[29] = Toxicity in Sprague-Dawley rat assessed as gross pathological changes at 30 mg/kg, po administered for 7 days measured on day 8 by necropsy; type: organism-based; settings: in vivo, 192 h, time 8 day
[30] = Toxicity in Sprague-Dawley rat assessed as change in alanine aminotransferase level at 30 mg/kg, po administered for 7 days measured on day 8; type: organism-based; settings: in vivo, 192 h, time 8 day
[31] = Toxicity in Sprague-Dawley rat assessed as diarrhea at 30 mg/kg, po administered for 7 days; type: organism-based; settings: in vivo, 168 h, time 7 day
[32] = Drug recovery in Sprague-Dawley rat feces at 0.1 mg/kg, po administered via gavage measured after 72 hrs by LC-MS/MS analysis; type: ADME, organism-based; settings: faeces, read-out: Drug recovery

With CN1Cc2c(Cl)cc(Cl)cc2C(c2ccc(S(=O)(=O)NCCOCCOCCOCCNC(=O)NCCOCCOCCOCCNS(=O)(=O)c3ccc(C4CN(C)Cc5c(Cl)cc(Cl)cc54)cc3)cc2)C1 (configuration not stated) the Activity [1] was 60%, the Activity [2] was 25% and the AUC [3] was < 19 ng·h/mL.
With CN1Cc2c(Cl)cc(Cl)cc2[C@H](c2cccc(S(=O)(=O)NCCOCCOCCNC(=O)COCC(=O)NCCOCCOCCNS(=O)(=O)c3cccc([C@@H]4CN(C)Cc5c(Cl)cc(Cl)cc54)c3)c2)C1 the inhibition (Rattus norvegicus) was “Active”, the Drug metabolism [4] was “Metabolite_Notdetected” and the Activity [5] was 10%. The dose excreted at 64 h [6] was 117%, the Cmax ([7]; Sprague-Dawley, read-out: Cmax) was < 2 ng/mL and the Drug metabolism [8] was “Metabolite_Notdetected”. The inhibition at 10 µM (hERG (KCNH2)) was < 50%.
For CN1Cc2c(Cl)cc(Cl)cc2C(c2cccc(S(=O)(=O)NCCOCCOCCNC(=O)c3ccc(C(=O)NCCOCCOCCNS(=O)(=O)c4cccc(C5CN(C)Cc6c(Cl)cc(Cl)cc65)c4)cc3)c2)C1 (racemic), the Activity [1] was 58%, the AUC [9] was < 8 ng·h/mL and the Activity [2] was 24%. The Activity [10] was 2, the IC50 [11] was 6310 nM and the Cmax [12] was < 2 ng/mL.
CN1Cc2c(Cl)cc(Cl)cc2C(c2cccc(S(=O)(=O)NCCOCCOCCOCCNC(=O)NCCOCCOCCOCCNS(=O)(=O)c3cccc(C4CN(C)Cc5c(Cl)cc(Cl)cc54)c3)c2)C1 (racemic) gave an Activity [1] of 50%, an IC50 [13] of 200 nM and an Activity [2] of 87%. For the same compound, the AUC [14] was < 75 ng·h/mL, the Activity [10] was 1 and the IC50 [11] was 100 nM. The Cmax [15] was < 20 ng/mL.
With CN1Cc2c(Cl)cc(Cl)cc2C(c2ccc(S(=O)(=O)NCCOCCOCCOCCNC(=O)c3ccc(C(=O)NCCOCCOCCOCCNS(=O)(=O)c4ccc(C5CN(C)Cc6c(Cl)cc(Cl)cc65)cc4)cc3)cc2)C1 (racemic) the Activity [1] was 56%, the Cmax [16] was < 3 ng/mL and the AUC [17] was < 9 ng·h/mL. The IC50 [13] was 39.8 nM, the Activity [2] was 50% and the Activity [10] was 1.5. For the same compound, the IC50 [11] was 12.6 nM.
With CN1Cc2c(Cl)cc(Cl)cc2C(c2ccc(S(=O)(=O)NCCOCCOCCNC(=O)c3ccc(C(=O)NCCOCCOCCNS(=O)(=O)c4ccc(C5CN(C)Cc6c(Cl)cc(Cl)cc65)cc4)cc3)cc2)C1 (racemic) the Activity [1] was 56%, the Cmax [18] was < 3 ng/mL and the Activity [2] was 45%. For the same compound, the Activity [10] was 2, the IC50 [11] was 398 nM and the AUC [19] was < 8 ng·h/mL.
For CN1Cc2c(Cl)cc(Cl)cc2C(c2ccc(S(=O)(=O)NCCOCCOCCNC(=O)NCCOCCOCCNS(=O)(=O)c3ccc(C4CN(C)Cc5c(Cl)cc(Cl)cc54)cc3)cc2)C1 (racemic), the Activity [1] was 49%, the Cmax [20] was < 2 ng/mL and the Activity [2] was 107%. The AUC [21] was < 8 ng·h/mL and the Activity [10] was 1.
With CN1Cc2c(Cl)cc(Cl)cc2C(c2cccc(S(=O)(=O)NCCOCCOCCOCCNC(=O)CCC(=O)NCCOCCOCCOCCNS(=O)(=O)c3cccc(C4CN(C)Cc5c(Cl)cc(Cl)cc54)c3)c2)C1 (racemic) the Activity [1] was 54%, the Cmax [22] was < 2 ng/mL and the Activity [2] was 56%. For the same compound, the AUC [23] was < 8 ng·h/mL and the Activity [10] was 1.5.
In the case of CN1Cc2c(Cl)cc(Cl)cc2C(c2cccc(S(=O)(=O)NCCOCCOCCOCCNC(=O)c3ccc(C(=O)NCCOCCOCCOCCNS(=O)(=O)c4cccc(C5CN(C)Cc6c(Cl)cc(Cl)cc65)c4)cc3)c2)C1 (racemic), the Activity [1] is reported as 53%, the AUC [24] is reported as < 12 ng·h/mL and the IC50 [13] is reported as 50.1 nM. The Cmax [25] was < 4 ng/mL, the Activity [2] was 87% and the Activity [10] was 1. The IC50 [11] was 25.1 nM.
With CN1Cc2c(Cl)cc(Cl)cc2[C@H](c2cccc(S(=O)(=O)NCCOCCOCCNC(=O)NCCCCNC(=O)NCCOCCOCCNS(=O)(=O)c3cccc([C@@H]4CN(C)Cc5c(Cl)cc(Cl)cc54)c3)c2)C1 [TENAPANOR] the inhibition (Rattus norvegicus) was “Active”, the Drug metabolism [26] was “Metabolite_Detected” and the Drug metabolism [4] was “Metabolite_Notdetected”. For the same compound, the Activity [27] was “Non-Toxic”, the Activity [5] was 10% and the Activity [28] was “Non-Toxic”. The Activity [29] was “Non-Toxic”, the Activity [30] was “Non-Toxic” and the IC50 [13] was 0.501 nM. The Cmax [7] was < 3 ng/mL, the Activity [31] was “Toxic” and the IC50 [11] was 15.8 nM. For the same compound, the dose excreted at 72 h [32] was 92% and the inhibition at 10 µM (hERG (KCNH2)) was < 50%.
